Source: ChEMBL document CHEMBL1773008 (ACS Med Chem Lett, 2010)
The source made the active and inactive calls. The rule behind the calls is not given here.

What was measured:
[1] = tested on: SK-BR-3; experiment: Antiproliferative activity against human SKBR3 cells after 72 hrs by MTS assay; format: functional, cell-based; settings: SK-BR-3, 72 h
[2] = tested on: MCF7; experiment: Antiproliferative activity against human MCF7 cells after 72 hrs by MTS assay; format: functional, cell-based; settings: MCF7, 72 h
[3] = tested on: SK-BR-3; experiment: Ratio of IC50 for compound to IC50 for novobiocin for human SKBR3 cells; format: functional
[4] = target: Heat shock protein HSP 90-beta (Homo sapiens) (UniProt P08238); experiment: Inhibition of HSP90 in human MCF7 cells assessed as Her2 degradation at 0.5 to 7.5 uM after 24 hrs by Western blot analysis; format: cell-based
[5] = target: Heat shock protein HSP 90-beta (Homo sapiens) (UniProt P08238); experiment: Inhibition of HSP90 in human MCF7 cells assessed as Raf degradation at 0.5 to 7.5 uM after 24 hrs by Western blot analysis; format: cell-based
[6] = target: Heat shock protein HSP 90-beta (Homo sapiens) (UniProt P08238); experiment: Inhibition of HSP90 in human MCF7 cells assessed as Akt degradation at 0.5 to 7.5 uM after 24 hrs by Western blot analysis; format: cell-based
[7] = target: Heat shock protein HSP 90-beta (Homo sapiens) (UniProt P08238); experiment: Inhibition of HSP90 in human MCF7 cells assessed as Akt degradation after 24 hrs by Western blot analysis; format: cell-based
[8] = target: Heat shock protein HSP 90-beta (Homo sapiens) (UniProt P08238); experiment: Inhibition of HSP90 in human MCF7 cells assessed as Raf degradation after 24 hrs by Western blot analysis; format: cell-based
[9] = target: Heat shock protein HSP 90-beta (Homo sapiens) (UniProt P08238); experiment: Inhibition of HSP90 in human MCF7 cells assessed as Her2 degradation at after 24 hrs by Western blot analysis; format: cell-based
[10] = target: Heat shock protein HSP 90-beta (Homo sapiens) (UniProt P08238); experiment: Inhibition of HSP90 in human MCF7 cells assessed as Raf degradation at 0.5 to 100 uM after 24 hrs by Western blot analysis; format: cell-based
[11] = target: Heat shock protein HSP 90-beta (Homo sapiens) (UniProt P08238); experiment: Inhibition of HSP90 in human MCF7 cells assessed as Akt degradation at 0.5 to 100 uM after 24 hrs by Western blot analysis; format: cell-based
[12] = tested on: SK-BR-3; experiment: Ratio of IC50 for compound to IC50 for DHN2 for human SKBR3 cells; format: functional
[13] = tested on: MCF7; experiment: Ratio of IC50 for compound to IC50 for novobiocin for human MCF7 cells; format: functional
[14] = target: Heat shock protein HSP 90-beta (Homo sapiens) (UniProt P08238); experiment: Inhibition of HSP90 in human MCF7 cells assessed as Her2 degradation at 0.5 to 100 uM after 24 hrs by Western blot analysis; format: cell-based

Heat shock protein HSP 90-beta (Homo sapiens), sequence (P08238 whole entry): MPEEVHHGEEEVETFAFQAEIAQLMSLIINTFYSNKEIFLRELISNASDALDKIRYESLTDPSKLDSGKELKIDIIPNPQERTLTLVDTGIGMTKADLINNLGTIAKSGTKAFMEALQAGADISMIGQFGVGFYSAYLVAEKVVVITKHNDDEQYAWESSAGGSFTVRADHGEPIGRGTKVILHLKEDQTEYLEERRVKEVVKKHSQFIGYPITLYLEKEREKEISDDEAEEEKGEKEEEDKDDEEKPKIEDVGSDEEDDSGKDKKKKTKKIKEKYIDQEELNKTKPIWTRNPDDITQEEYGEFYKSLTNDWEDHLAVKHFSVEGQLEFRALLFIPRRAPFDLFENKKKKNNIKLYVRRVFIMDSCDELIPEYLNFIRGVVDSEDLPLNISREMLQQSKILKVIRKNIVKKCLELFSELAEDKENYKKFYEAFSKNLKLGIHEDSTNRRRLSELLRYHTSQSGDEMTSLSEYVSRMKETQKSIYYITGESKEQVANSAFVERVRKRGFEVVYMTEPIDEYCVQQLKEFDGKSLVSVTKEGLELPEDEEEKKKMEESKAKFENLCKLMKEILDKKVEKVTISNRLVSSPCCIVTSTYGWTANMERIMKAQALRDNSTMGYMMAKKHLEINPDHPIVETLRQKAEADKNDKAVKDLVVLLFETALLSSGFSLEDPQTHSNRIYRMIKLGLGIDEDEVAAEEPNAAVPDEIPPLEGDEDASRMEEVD

SMILES	IC50 [1] [nM]	IC50 [2] [nM]	Ratio IC50 [3]	further results
CNCCOc1ccc2cc(NC(=O)c3ccc(OC(C)=O)c(CC=C(C)C)c3)c(=O)oc2c1C	910	2080		
CC(C)=CCc1cc(C(=O)Nc2cc3ccc(O[C@@H]4OC[C@@H](O)[C@H]4O)c(C)c3oc2=O)ccc1O	14400	14300	1500	
CC(C)=CCc1cc(C(=O)Nc2cc3ccc(OCCN(C)C)c(C)c3oc2=O)ccc1O	9450	13500		
CC(C)=CCc1cc(C(=O)Nc2cc3ccc(OC4CCNCC4)c(C)c3oc2=O)ccc1O	470	850		inhibition [4]: Active; inhibition [5]: Active; inhibition [6]: Active; inhibition [7]: Dose-dependent effect; inhibition [8]: Dose-dependent effect; inhibition [9]: Dose-dependent effect
CC(C)=CCc1cc(C(=O)Nc2cc3ccc(OC4CCCNC4)c(C)c3oc2=O)ccc1O (stereo unspecified)	790	1680		
CC(C)=CCc1cc(C(=O)Nc2cc3ccc(OC4CCN(C)CC4)c(C)c3oc2=O)ccc1O		1090		
CC(=O)Oc1ccc(C(=O)Nc2cc3ccc(OC4CCCN(C)C4)c(C)c3oc2=O)cc1CC=C(C)C (stereo unspecified)	1420	1570		
CC(C)=CCc1cc(C(=O)Nc2cc3ccc(OCCCN(C)C)c(C)c3oc2=O)ccc1O	440	1350		
CC(=O)Oc1ccc(C(=O)Nc2cc3ccc(OC4CCN(C)CC4)c(C)c3oc2=O)cc1CC=C(C)C	580	1180		
CC(C)=CCc1cc(C(=O)Nc2cc3ccc(O[C@@H]4C[C@H](O)CO4)c(C)c3oc2=O)ccc1O	22200	> 100000	1500	
CC(C)=CCc1cc(C(=O)Nc2cc3ccc(O[C@H]4C[C@H](O)CO4)c(C)c3oc2=O)ccc1O	21500	22500	1500	
CC(C)=CCc1cc(C(=O)Nc2cc3ccc(O[C@H]4OCC[C@@H](O)[C@H]4O)c(C)c3oc2=O)ccc1O	10700	10000	1500	
CC(C)=CCc1cc(C(=O)Nc2cc3ccc(OC4CCCN(C)C4)c(C)c3oc2=O)ccc1O (stereo unspecified)	4690	10100		
CC(=O)Oc1ccc(C(=O)Nc2cc3ccc(OC4CCCNC4)c(C)c3oc2=O)cc1CC=C(C)C (stereo unspecified)	1230	1540		
CNCCOc1ccc2cc(NC(=O)c3ccc(O)c(CC=C(C)C)c3)c(=O)oc2c1C	750	1330		
CC(=O)Oc1ccc(C(=O)Nc2cc3ccc(OCCCN(C)C)c(C)c3oc2=O)cc1CC=C(C)C	460	1180		
CO[C@@H]1[C@@H](O)[C@@H](O)[C@H](Oc2ccc3cc(NC(=O)c4ccc(O)c(CC=C(C)C)c4)c(=O)oc3c2C)OC1(C)C	10900	11300	1500	
CC(C)=CCc1cc(C(=O)Nc2cc3ccc(O[C@H]4OCCC[C@H]4O)c(C)c3oc2=O)ccc1O	7870	6450	1500	
CC(C)=CCc1cc(C(=O)Nc2cc3ccc(O[C@@H]4OCCC[C@H]4O)c(C)c3oc2=O)ccc1O	30000	10200	1500	
CC(C)=CCc1cc(C(=O)Nc2cc3ccc(O[C@H]4C[C@H](O)CCO4)c(C)c3oc2=O)ccc1O	3110	1560	200	inhibition [10]: Active; inhibition [11]: Active; inhibition [7]: Dose-dependent effect; inhibition [8]: Dose-dependent effect; inhibition [9]: Dose-dependent effect; Ratio IC50 [12]: 3; Ratio IC50 [13]: 200; inhibition [14]: Active
CC(=O)Oc1ccc(C(=O)Nc2cc3ccc(OCCN(C)C)c(C)c3oc2=O)cc1CC=C(C)C	1320	4760		
CC(=O)Oc1ccc(C(=O)Nc2cc3ccc(OC4CCNCC4)c(C)c3oc2=O)cc1CC=C(C)C	560	1530		
CC(C)=CCc1cc(C(=O)Nc2cc3ccc(O[C@@H]4OCC[C@@H](O)[C@H]4O)c(C)c3oc2=O)ccc1O	6960	13300	1500	
CC(C)=CCc1cc(C(=O)Nc2cc3ccc(O[C@@H]4C[C@H](O)CCO4)c(C)c3oc2=O)ccc1O	5070	1340	1500	
